# Laboratory results: patent US20120157471A1, “BENZIMIDAZOLE DERIVATIVES” (PFIZER INC., priority 2009, published 2012)
# How the values were obtained:
# Gli-Luc/MEF cells (Smo) = assay: Gli-Luc/MEF assay (Shh-stimulated luciferase reporter under the Gli response element); format: cell-based, mouse
# In short: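 IC50 derived from luminescence (Bright-Glo) after 48 h at 37° C, 5% CO2, with compound at […] (3-fold dilutions) added together with mouse Shh at 2 μg/mL final. Cells: MEFs from Gli-Luc transgenic mice.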
# [1] = biological target: T1, human Smo (amino acids 181-787) (Homo sapiens, UniProt Q99835); assay: Smo radioligand competition binding assay (displacement of 3H-PF-03451358 from HEK293 membranes); settings: for inhibition at 0.05 µM: 0.05 μM test compound, displacement of 3H-PF-03451358, read-out: SMO % inh. @ 0.05 μM; for IC50: radioligand competition binding
# T1 construct: expressed in transfected cells; membrane preparation
# T1 sequence (Q99835 181-787): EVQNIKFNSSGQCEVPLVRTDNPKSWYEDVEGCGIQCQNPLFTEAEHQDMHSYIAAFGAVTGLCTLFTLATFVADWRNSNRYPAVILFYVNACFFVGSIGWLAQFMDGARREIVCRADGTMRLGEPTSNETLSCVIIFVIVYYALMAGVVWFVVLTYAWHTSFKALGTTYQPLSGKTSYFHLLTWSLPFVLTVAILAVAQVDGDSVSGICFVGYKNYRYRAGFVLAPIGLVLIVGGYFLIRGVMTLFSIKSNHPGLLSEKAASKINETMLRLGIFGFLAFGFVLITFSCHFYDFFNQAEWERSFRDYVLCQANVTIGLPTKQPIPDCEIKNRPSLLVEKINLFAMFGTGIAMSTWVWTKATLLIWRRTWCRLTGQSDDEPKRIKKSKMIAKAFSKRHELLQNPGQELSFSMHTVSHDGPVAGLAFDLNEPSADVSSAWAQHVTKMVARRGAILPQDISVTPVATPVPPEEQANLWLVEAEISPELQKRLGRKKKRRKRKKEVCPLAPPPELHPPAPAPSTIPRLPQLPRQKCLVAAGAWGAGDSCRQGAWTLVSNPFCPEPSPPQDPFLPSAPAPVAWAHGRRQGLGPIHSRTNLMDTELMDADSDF
# In short: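 Displacement of 3 nM tritiated PF-03451358 measured by filtration and scintillation counting after 2 h at room temperature, using 40 μg/well HEK293 membranes bearing cell-surface Smo 181-787, pH 7.5 buffer. Specific binding defined against 30 μM unlabelled ligand; IC50 via variable-slope sigmoidal fit.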
SMILES,"IC50 (Gli-Luc/MEF cells (Smo); Mus musculus, MEF, 48 h)",inhibition at 0.05 µM [1],IC50 [1],IC50 (Gli-Luc/MEF cells (Smo); 48 hours)
"COC(=O)N1CCN(c2cc(-c3nc4ccccc4n3C)ccn2)CC1 [Example A-141, methyl 4-[4-(1-methyl-1H-benzimidazol-2-yl)pyridin-2-yl]piperazine-1-carboxylate]",27 nM,96%,34 nM,
"Cn1c(-c2cc(N3CCN4C[C@H](O)CC4C3)ncc2Cl)nc2ccccc21 (stereo in doubt) [Example A-92, (7R,8aR)-2-[5-chloro-4-(1-methyl-1H-benzimidazol-2-yl)pyridin-2-yl]octahydropyrrolo[1,2-a]pyrazin-7-ol]",46 nM,88%,79 nM,
"Cn1c(-c2cc(N3CCS(=O)(=O)CC3)ncc2Cl)nc2ccccc21 [Example A-89, 2-[5-chloro-2-(1,1-dioxidothiomorpholin-4-yl)pyridin-4-yl]-1-methyl-1H-benzimidazole]",44 nM,88%,40 nM,
"C[C@@H]1CN(c2cc(-c3nc4ccccc4n3C)c(Cl)cn2)CCN1S(C)(=O)=O [Example A-158, 2-{5-chloro-2-[(3R)-3-methyl-4-(methylsulfonyl)piperazin-1-yl]pyridin-4-yl}-1-methyl-1H-benzimidazole]",2 nM,99%,9 nM,
"Cn1c(-c2cc(N3C[C@@H](CO)C(C)(CO)C3)ncc2Cl)nc2ccccc21 (stereo in doubt) [Example A-95, {(3R,4S)-1-[5-chloro-4-(1-methyl-1H-benzimidazol-2-yl)pyridin-2-yl]-3-methylpyrrolidine-3,4-diyl}dimethanol]",38 nM,86%,70 nM,
"CN(CCCO)c1cc(-c2nc3ccccc3n2C)c(Cl)cn1 [Example A-163, 3-{[5-chloro-4-(1-methyl-1H-benzimidazol-2-yl)pyridin-2-yl](methyl)amino}propan-1-ol]",14 nM,98%,17 nM,
"Cc1noc(CC2CN(c3cc(-c4nc5ccccc5n4C)c(Cl)cn3)CCO2)n1 (centres unmarked) [Example A-45, 2-(5-chloro-2-{2-[(3-methyl-1,2,4-oxadiazol-5-yl)methyl]morpholin-4-yl}pyridin-4-yl)-1-methyl-1H-benzimidazole]",9 nM,102%,13 nM,
"COCC(=O)N1CCN(c2ncc(Cl)c(-c3nc4ccccc4n3C)n2)CC1 [Example C-16, 2-{5-chloro-2-[4-(methoxyacetyl)piperazin-1-yl]pyrimidin-4-yl}-1-methyl-1H-benzimidazole]",12.7 nM,99%,14 nM,
"CCNC(=O)N1CCN(c2cc(-c3nc4ccccc4n3C)c(F)cn2)CC1 [Example D-3, N-ethyl-4-[5-fluoro-4-(1-methyl-1H-benzimidazol-2-yl)pyridin-2-yl]piperazine-1-carboxamide]",10 nM,98%,8 nM,
"Cn1c(-c2ccnc(N3CCCNCC3)c2)nc2ccccc21 [Example A-13, 2-[2-(1,4-diazepan-1-yl)pyridin-4-yl]-1-methyl-1H-benzimidazole]",89 nM,66%,423 nM,
"CC(=O)N1CCN(c2cc(-c3nc4ccccc4n3C)c(Cl)cn2)C[C@H]1C [Example A-159, 2-{2-[(3R)-4-acetyl-3-methylpiperazin-1-yl]-5-chloropyridin-4-yl}-1-methyl-1H-benzimidazole]",4 nM,100%,10 nM,
"Cn1c(-c2cc(N3CCC(O)(c4ccncn4)C3)ncc2Cl)nc2ccccc21 (centres unmarked) [Example A-122, 1-[5-chloro-4-(1-methyl-1H-benzimidazol-2-yl)pyridin-2-yl]-3-pyrimidin-4-ylpyrrolidin-3-ol]",38 nM,59%,,
"Cn1c(-c2cc(N3C[C@@H](CO)[C@@H](CO)C3)ncc2Cl)nc2ccccc21 [Example A-82, {(3R,4S)-1-[5-chloro-4-(1-methyl-1H-benzimidazol-2-yl)pyridin-2-yl]pyrrolidine-3,4-diyl}dimethanol]",16 nM,91%,43 nM,
"Cn1c(-c2cc(N3CC(CS(C)(=O)=O)C3)ncc2Cl)nc2ccccc21 [Example A-211, 2-(5-chloro-2-{3-[(methylsulfonyl)methyl]azetidin-1-yl}pyridin-4-yl)-1-methyl-1H-benzimidazole]",28.4 nM,104%,36 nM,
"Cn1c(-c2cc(N3CCN(CCO)CC3)ncc2Cl)nc2ccccc21 [Example A-213, 2-{4-[5-chloro-4-(1-methyl-1H-benzimidazol-2-yl)pyridin-2-yl]piperazin-1-yl}ethanol]",56.8 nM,83%,78 nM,
"Cn1c(-c2cc(N3CCN(CC(O)CO)CC3)ncc2Cl)nc2ccccc21 (centres unmarked) [Example A-103, 3-{4-[5-chloro-4-(1-methyl-1H-benzimidazol-2-yl)pyridin-2-yl]piperazin-1-yl}propane-1,2-diol]",27 nM,80%,153 nM,
"Cn1c(-c2nc(N3CCC(O)CC3)ncc2Cl)nc2ccccc21 [Example C-11, 1-[5-chloro-4-(1-methyl-1H-benzimidazol-2-yl)pyrimidin-2-yl]piperidin-4-ol]",24 nM,98%,16 nM,
"Cn1c(-c2cc(N3CCn4cnnc4C3)ncc2Cl)nc2ccccc21 [Example A-109, 7-[5-chloro-4-(1-methyl-1H-benzimidazol-2-yl)pyridin-2-yl]-5,6,7,8-tetrahydro[1,2,4]triazolo[4,3-a]pyrazine]",140 nM,75%,129 nM,
"COC(=O)NC1CCN(c2cc(-c3nc4ccccc4n3C)c(F)cn2)CC1 [Example D-12, methyl {1-[5-fluoro-4-(1-methy-1H-benzimidazol-2-yl)pyridin-2-yl]plpetidin-4-yl}carbamate]",7.7 nM,96%,8 nM,
"Cn1c(-c2cc(N3CCC(C(=O)NCCO)CC3)ncc2Cl)nc2ccccc21 [Example A-74, 1-[5-chloro-4-(1-methyl-1H-benzimidazol-2-yl)pyridin-2-yl]-N-(2-hydroxyethyl)piperidine-4-carboxamide]",11 nM,93%,27 nM,
"COCCS(=O)(=O)NC1CN(c2cc(-c3nc4ccccc4n3C)c(Cl)cn2)C1 [Example A-195, N-{1-[5-chloro-4-(1-methyl-1H-benzimidazol-2-yl)pyridin-2-yl]azetidin-3-yl}-2-methoxyethanesulfonamide]",4.9 nM,101%,9.5 nM,
"Cn1c(-c2ccnc(N3CCC(NS(C)(=O)=O)CC3)n2)nc2ccccc21 [Example C-10, N-{1-[4-(1-methyl-1H-benzimidazol-2-yl)pyrimidin-2-yl]piperidin-4-yl}methanesulfonamide]",57 nM,97%,44 nM,
"Cn1c(-c2cc(N3C[C@H]4CC[C@@H](C3)N4S(C)(=O)=O)ncc2Cl)nc2ccccc21 [Example A-175, 2-{5-chloro-2-[(1R,5S)-8-(methylsulfonyl)-3,8-diazabicyclo[3.2.1]oct-3-yl]pyridin-4-yl}-1-methyl-1H-benzimidazole]",9 nM,97%,17 nM,
"Cc1nnc(C2CCN(c3cc(-c4nc5ccccc5n4C)c(Cl)cn3)CC2)o1 [Example A-97, 2-{5-chloro-2-[4-(5-methyl-1,3,4-oxadiazol-2-yl)piperidin-1-yl]pyridin-4-yl}-1-methyl-1H-benzimidazole]",25 nM,85%,32 nM,
"Cn1c(-c2cc(N3CCN(C(=O)CO)CC3)ncc2F)nc2ccccc21 [Example D-17, 1-{4-[5-fluoro-4-(1-methyl-1H-benzimidazol-2-yl)pyridin-2-yl]piperazin-1-yl}-2-hydroxyethanone]",13 nM,96%,15 nM,
"Cn1c(-c2cc(N3CCN(CCS(C)(=O)=O)CC3)ncc2Cl)nc2ccccc21 [Example A-206, 2-(5-chloro-2-{4-[2-(methylsulfonyl)ethyl]piperazin-1-yl}pyridin-4-yl)-1-methyl-1H-benzimidazole]",,99%,17 nM,17.1 nM
"Cn1c(-c2cc(NCCO)ncc2Cl)nc2ccccc21 [Example A-172, 2-{[5-chloro-4-(1-methyl-1H-benzimidazol-2-yl)pyridin-2-yl]amino}ethanol]",52 nM,80%,107 nM,
"Cn1c(-c2cc(N3CCc4nnc(C5CC5)n4CC3)ncc2Cl)nc2ccccc21 [Example A-68, 7-[5-chloro-4-(1-methyl-1H-benzimidazol-2-yl)pyridin-2-yl]-3-cyclopropyl-6,7,8,9-tetrahydro-5H-[1,2,4]triazolo[4,3-d][1,4]diazepine]",20 nM,94%,21 nM,
"Cn1c(-c2cc(N3CCN(S(=O)(=O)CC(C)(C)O)CC3)ncc2F)nc2ccccc21 [Example D-16, 1-({4-[5-fluoro-4-(1-methyl-1H-benzimidazol-2-yl)pyridin-2-yl]piperazin-1-yl}sulfonyl)-2-methylpropan-2-ol]",3 nM,94%,9 nM,
